Reference: patent US20180161310A1, “COMPOUNDS AND METHODS FOR THE TREATMENT OF NEUROLOGICAL DISORDERS” (Teleos Therapeutics, LLC, priority 2016, published 2018)
Values joined by “and” are separate entries in the source; they are usually repeats but may differ in a detail not shown here. Identical values can stand only once. Like-named read-outs stand apart in the source and are kept apart here.

Legend:
zebrafish larvae = type: in vivo; details: 5 mM
Source text: In an effort to determine how pharmacological inhibition of KCC2 affects zebrafish behaviors, 7 days post-fertilization (dpf) zebrafish larvae can be treated with two analogs of the selective KCC2 inhibitor, VU0463271 and VU0240551, and their behavioral responses in a battery of behavioral assays can be assessed. These behavioral assays can include a series of visual and acoustic stimuli presented to larval zebrafish in various contexts and combinations to elicit robust and reproducible patterns of activity. For example, behavioral assays can include two acoustic-stimulus-response (ASR1 and ASR2) assays, six visual-stimulus-response (VSR1-VSR6) assays, and three assays that combine acoustic and visual stimulus responses (AVSR1-AVSR3). Together, such a battery of behavioral assays use six stimuli, including red light (600 nm), blue light (420 nm), violet light (405 nm), green light (525 nm), low-intensity sound (60 dB) and high-intensity sound (70 dB). Behavioral responses of the larval zebrafish can be measured by a motion index (MI) that quantifies the motor activity of at least about 8 zebrafish larvae in each well of a 96-well plate.
Referring to FIGS. 1A-1B, zebrafish behavioral profiles can include a battery of individual behavioral assays labeled ASR1, AVSR1, ASR2, VSR1, VSR2, VSR3, VSR4, AVSR2, VSR5, AVSR3, and VSR6, as described herein. These behavioral assays can be combined to form a Motion Index (MI), which is a quantification of the motor activity of at least about 8 zebrafish larvae in each well of a 96-well plate. As shown in the representative images of FIGS. 1A-1B, zebrafish larvae were treated with DMSO (control), VU0463271 (FIG. 1A), or pentylentetrazol or PTZ (FIG. 1B).
Treatment with increasing doses of VU0463271 induced a unique and dose-dependent profile of behavioral responses, detectable at 2.5 μM and 5 μM. […] This relatively low concentration of VU0463271 elicited a reproducible behavioral profile with altered sensitivity of the fish larvae to specific combinations of stimuli. […] The increased MI in the AVSR1 and AVSR3 assays due to VU0463271 treatment reflects a seizure-like hyperexcitability in the larval fish.
Additionally, seizures have been induced in 7 dpf zebrafish larvae using pentylentetrazol (PTZ) treatment, and motor and electroencephalographic (EEG) responses were consistent with seizure phenotypes.

[1] = tested on: PTZ-induced behavior in zebrafish larvae; assay: Suppression of PTZ-induced behavior in zebrafish larvae; type: in vivo; details: pre-treatment with 6 concentrations, then 5 mM PTZ
Description: Differences between behavioral profiles of larval zebrafish treated with KCC2 inhibitors and larval zebrafish treated with PTZ were investigated by evaluating the ability of traditional anti-seizure drugs to reverse their effects. Five drugs in at least six concentrations (by allocating 12 wells per concentration) were tested. These drugs included a benzodiazepine anxiolytic (diazepam), two AEDs that increase GABA levels in the synapse (tiagabine and valproate), a sodium channel blocker (phenytoin) and a synthetic neurosteroid GABAA positive allosteric modulator (PAM, ganaxolone).

[2] = tested on: VU0240551-induced phenotype (KCC2 inhibition) in zebrafish larvae
[3] = tested on: cultured rat hippocampal neurons; assay: Gramicidin perforated patch clamp in cultured hippocampal neurons; type: cell-based
Description: Referring to FIG. 9, representative IV curves were generated (current-voltage curves) to characterise the intrinsic excitability of TT0023831 and TT0042607 in gramicidin perforated patch clamp studies, and to investigate whether the effects of the three hit compounds identified in the above-described suppressor screens translate to rodent models. The effects of these compounds were evaluated in cultured rat hippocampal neurons using the gramicidin perforated patch technique. The GABAA agonist, muscimol (1 μM), was used to measure EGABA values under basal conditions (FIG. 9). Perfusion of 30 μM TT0011235 potentiated GABAA-mediated currents, both muscimol-activated and endogenous post-synaptic potentials, and shifted the EGABA values (FIG. 9 and Appendix B). […] Treatment with 30 μM TT0042607 slowed the upstroke and repolarization, reduced the input resistant and thus, and reduced the number of open channels.

Nav1.6 = Nav1.6 (Homo sapiens, UniProt Q9UQD0)
Nav1.2 = Nav1.2 (Homo sapiens, UniProt Q99250)
[4] = tested on: VU0463271-induced phenotype (KCC2 inhibition) in zebrafish larvae; assay: animal or person; details: for suppression score dose response compared with other compounds as suppressor of the hyperexcitability phenotype: zebrafish, FIG. 8 / FIG. 10
Description: To quantify the ability of the same drugs to reverse (or “rescue”) the phenotype caused by either 2.5 μM VU0463271 or 5 μM VU0240551, a rescue score between 0 (no rescue) and 1 (maximal theoretical rescue) was calculated (FIG. 2C). A rescue score incorporates and quantifies the degree of phenotypic reversal and the level of sedation in each concentration tested (see Materials and Methods below).
A diverse collection of 37,000 uncharacterized small molecules were used in a suppressor screen against either 2.5 μM VU0463271 (27,000 compounds) or 5 μM VU0240551 (10,000 compounds), along with 3,700 control wells treated with DMSO alone and 3,700 control wells treated with the KCC2 inhibitor. Each well of a 96-well plate containing at least about 8 zebrafish larvae was treated with a library compound or DMSO followed by treatment with the KCC2 inhibitor. Behavioral profiles pre- and post-treatment with the KCC2 inhibitor were evaluated using the behavioral assay battery described herein, and a detailed quantitative readout of about 15,000 time points was generated for each well. These behavioral profiles were used to calculate a screening score for each library compound, which incorporates and quantifies the rescue score and sedation index (see Materials and Methods).
In some cases, small molecules that alter the KCC2 inhibition phenotype may reverse the behavioral phenotype back to the normal, but could also elicit a new undesired phenotype, which is different from a normal behavior. To discriminate between these possibilities, vector algebra was used to compare each behavioral profile to the behavioral profile of DMSO-treated larvae and defined a value for the phenotypic distance from DMSO. The screen score of each compound was then plotted against its averaged phenotypic distance from DMSO (FIG. 3A) and MI (FIG. 3B) to filter out compounds that elicit a profile that is very different from the control one and compounds that reduce overall activity, respectively.
The reproducibility of the effects and the active concentration ranges of the 30 hits selected, as described above, were determined. Their rescue efficacies were retested in at least six concentrations and their rescue scores were also recalculated.
TT0023831 and six analogs were tested at a range of doses from 2.5-320 uM in a behavioral assay designed to assess the ability of compounds to suppress the effects of KCC2 inhibition. The graphs of FIG. 11 indicate the degree of suppression of the KCC2-inhibited phenotype, where a score of 1 represents complete restoration of KCC2-treated zebrafish to normal. […] Table 4 summarizes the estimated EC50 values and peak effect values for each compound.
A large number of fertilized zebrafish eggs (up to 20,000 embryos per day) were collected from group matings of wild type Ekkwill/Singapore zebrafish. Embryos were raised in hatching jars at 28° C. on a 14/10 hour light/dark cycle until 3 days post fertilization (dpf), then transferred to an incubator under the same conditions until 7 dpf. Groups of eight larvae (7 dpf) were distributed into the wells of a clear flat bottom square well 96-well plates filled with E3 medium (300 μl). Larvae were then incubated at 25° C. on the bench top for one-hour chemical treatment and subsequent experiments.
A library containing 37,000 uncharacterized small molecules was purchased from Life Chemicals and dissolved in DMSO at a stock concentration of 10 mM.

[5] = tested on: mouse maximal electroshock (MES) model; assay: Mouse maximal electroshock (MES) model; type: in vivo; details: animals protected from seizures / number tested
Description: (§1) TT0023831 and TT0042607 were tested in mammalian models of epilepsy. The two compounds were tested in the mouse 6 Hz 44 mA model and the mouse maximal electroshock (MES) model. A range of doses was examined, and results were reported as the number of animals protected from seizures out of the number tested (Table 5).

Nav1.1 = Nav1.1 (Homo sapiens, UniProt P35498)
mouse 6 Hz 44 mA model = assay: Mouse 6 Hz 44 mA model of epilepsy; type: in vivo; details: animals protected from seizures / number tested
Description: as §1

[6] = 10-point CRC, TT002381 to a maximum of 100 μM

Sequence of Nav1.6 (Q9UQD0 whole entry): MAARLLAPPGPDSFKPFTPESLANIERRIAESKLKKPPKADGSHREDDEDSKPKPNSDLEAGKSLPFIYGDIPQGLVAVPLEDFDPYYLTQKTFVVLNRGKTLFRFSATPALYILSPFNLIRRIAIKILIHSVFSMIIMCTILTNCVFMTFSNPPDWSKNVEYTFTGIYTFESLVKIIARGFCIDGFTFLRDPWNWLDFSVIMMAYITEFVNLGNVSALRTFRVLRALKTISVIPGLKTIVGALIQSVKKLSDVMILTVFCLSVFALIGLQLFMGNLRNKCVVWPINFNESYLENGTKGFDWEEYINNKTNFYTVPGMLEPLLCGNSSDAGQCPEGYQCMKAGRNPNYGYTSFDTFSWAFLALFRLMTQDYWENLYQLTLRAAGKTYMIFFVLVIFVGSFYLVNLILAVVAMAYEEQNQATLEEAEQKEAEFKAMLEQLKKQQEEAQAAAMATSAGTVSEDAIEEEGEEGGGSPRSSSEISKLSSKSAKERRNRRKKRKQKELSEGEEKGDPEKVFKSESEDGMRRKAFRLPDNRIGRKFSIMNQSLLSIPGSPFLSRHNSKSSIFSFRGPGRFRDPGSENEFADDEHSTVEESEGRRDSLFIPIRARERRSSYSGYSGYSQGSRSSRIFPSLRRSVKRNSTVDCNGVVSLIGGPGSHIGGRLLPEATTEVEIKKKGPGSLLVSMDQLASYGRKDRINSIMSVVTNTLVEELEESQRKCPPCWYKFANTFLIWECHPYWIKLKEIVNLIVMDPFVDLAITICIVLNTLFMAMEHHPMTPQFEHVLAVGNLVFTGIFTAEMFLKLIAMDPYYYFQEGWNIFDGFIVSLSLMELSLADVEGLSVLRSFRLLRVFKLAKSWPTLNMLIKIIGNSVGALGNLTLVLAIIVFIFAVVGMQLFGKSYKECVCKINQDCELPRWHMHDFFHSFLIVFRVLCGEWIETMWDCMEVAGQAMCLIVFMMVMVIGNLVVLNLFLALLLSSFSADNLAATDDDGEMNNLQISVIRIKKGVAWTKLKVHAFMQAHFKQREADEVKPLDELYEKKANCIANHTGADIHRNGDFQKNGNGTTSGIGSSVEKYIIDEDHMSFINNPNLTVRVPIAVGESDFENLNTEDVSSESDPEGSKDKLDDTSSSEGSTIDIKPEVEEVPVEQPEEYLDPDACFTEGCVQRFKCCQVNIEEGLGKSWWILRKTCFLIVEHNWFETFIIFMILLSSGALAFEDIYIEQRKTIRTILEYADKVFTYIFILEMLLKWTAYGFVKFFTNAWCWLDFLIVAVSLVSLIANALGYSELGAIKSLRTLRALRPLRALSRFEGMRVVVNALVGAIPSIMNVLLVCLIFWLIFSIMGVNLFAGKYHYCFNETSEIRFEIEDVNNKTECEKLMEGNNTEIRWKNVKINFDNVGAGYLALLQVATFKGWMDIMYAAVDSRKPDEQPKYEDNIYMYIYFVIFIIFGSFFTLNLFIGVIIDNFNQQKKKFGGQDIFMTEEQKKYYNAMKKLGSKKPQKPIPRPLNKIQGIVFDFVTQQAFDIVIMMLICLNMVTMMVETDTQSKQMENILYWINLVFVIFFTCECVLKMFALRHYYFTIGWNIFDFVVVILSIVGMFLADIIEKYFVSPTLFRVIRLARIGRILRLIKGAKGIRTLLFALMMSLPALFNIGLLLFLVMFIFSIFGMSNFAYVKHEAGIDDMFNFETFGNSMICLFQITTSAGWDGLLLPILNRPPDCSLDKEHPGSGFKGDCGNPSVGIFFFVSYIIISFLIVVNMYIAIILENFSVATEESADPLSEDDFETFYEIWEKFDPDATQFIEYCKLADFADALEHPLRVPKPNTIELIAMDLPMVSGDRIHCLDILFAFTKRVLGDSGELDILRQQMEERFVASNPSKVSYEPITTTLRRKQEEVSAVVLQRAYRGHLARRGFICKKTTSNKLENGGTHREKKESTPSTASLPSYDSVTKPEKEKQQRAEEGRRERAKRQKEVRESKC
Sequence of Nav1.2 (Q99250 whole entry): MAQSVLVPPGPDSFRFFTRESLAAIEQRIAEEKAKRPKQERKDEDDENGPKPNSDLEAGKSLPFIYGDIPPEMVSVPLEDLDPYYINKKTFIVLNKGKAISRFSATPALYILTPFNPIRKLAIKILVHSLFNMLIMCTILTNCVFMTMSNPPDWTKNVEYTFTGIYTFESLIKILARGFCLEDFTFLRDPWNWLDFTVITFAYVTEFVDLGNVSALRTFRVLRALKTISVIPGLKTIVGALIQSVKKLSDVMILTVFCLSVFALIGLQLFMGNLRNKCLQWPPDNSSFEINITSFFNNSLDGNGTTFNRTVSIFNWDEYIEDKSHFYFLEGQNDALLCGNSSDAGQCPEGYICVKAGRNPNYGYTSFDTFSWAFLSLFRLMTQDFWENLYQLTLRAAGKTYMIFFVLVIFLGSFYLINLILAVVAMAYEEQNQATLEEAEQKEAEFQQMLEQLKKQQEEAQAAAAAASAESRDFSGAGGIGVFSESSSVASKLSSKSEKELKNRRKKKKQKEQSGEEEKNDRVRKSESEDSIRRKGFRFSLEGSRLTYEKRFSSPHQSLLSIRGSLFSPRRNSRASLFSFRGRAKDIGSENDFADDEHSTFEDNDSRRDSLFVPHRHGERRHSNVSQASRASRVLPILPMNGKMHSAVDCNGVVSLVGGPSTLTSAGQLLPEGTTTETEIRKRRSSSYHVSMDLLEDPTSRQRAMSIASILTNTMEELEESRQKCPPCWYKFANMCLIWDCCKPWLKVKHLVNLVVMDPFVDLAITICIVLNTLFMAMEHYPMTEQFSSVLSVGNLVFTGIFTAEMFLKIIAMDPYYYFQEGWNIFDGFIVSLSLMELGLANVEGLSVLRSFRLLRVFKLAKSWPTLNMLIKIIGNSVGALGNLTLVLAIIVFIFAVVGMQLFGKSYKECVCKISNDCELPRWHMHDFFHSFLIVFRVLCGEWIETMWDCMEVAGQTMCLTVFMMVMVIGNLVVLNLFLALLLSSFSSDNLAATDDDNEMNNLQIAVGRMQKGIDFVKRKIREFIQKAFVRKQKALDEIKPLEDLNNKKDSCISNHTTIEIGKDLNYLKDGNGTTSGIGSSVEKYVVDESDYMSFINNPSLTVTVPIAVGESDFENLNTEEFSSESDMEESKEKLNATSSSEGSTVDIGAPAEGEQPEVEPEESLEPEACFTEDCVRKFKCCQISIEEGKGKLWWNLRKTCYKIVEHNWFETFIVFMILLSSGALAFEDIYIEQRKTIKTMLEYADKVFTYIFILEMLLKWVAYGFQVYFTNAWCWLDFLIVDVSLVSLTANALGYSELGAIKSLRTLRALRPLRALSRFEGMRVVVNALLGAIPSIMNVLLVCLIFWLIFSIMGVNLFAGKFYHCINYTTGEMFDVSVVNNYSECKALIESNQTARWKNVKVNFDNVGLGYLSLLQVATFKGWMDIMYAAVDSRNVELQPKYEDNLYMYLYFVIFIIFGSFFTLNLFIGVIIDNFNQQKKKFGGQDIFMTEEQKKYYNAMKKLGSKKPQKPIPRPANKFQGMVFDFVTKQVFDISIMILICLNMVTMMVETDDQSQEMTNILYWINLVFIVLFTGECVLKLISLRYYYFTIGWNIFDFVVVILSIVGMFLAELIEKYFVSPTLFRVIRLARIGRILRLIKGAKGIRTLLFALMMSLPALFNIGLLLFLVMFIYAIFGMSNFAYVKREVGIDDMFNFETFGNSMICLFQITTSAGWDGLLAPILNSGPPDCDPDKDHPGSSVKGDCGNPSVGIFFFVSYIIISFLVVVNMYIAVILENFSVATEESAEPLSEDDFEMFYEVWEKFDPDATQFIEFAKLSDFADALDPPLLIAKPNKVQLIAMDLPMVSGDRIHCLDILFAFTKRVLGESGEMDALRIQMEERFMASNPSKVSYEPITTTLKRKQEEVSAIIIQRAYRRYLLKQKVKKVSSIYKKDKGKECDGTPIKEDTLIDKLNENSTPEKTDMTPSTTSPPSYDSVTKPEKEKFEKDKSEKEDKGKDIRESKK

Structure (SMILES) | suppression of PTZ-induced hyperactivity in response to the different stimuli [1] | inhibition of Nav1.6 (Nav1.6; [6]) | inhibition of Nav1.2 (Nav1.2; [6]) | suppression score dose response compared with other compounds as suppressor of the hyperexcitability phenotype [4] | Rescued (MES model) ([5]; 10 mg/kg) | Rescued (MES model) ([5]; 30 mg/kg) | Rescued (MES model) ([5]; 100 mg/kg) | effect on GABAA-mediated currents [3] | firing rates of the cultured neurons [3] | spike initiation [3] | input resistant ([3]; 30 μM) | number of open channels (open at rest) ([3]; 30 μM) | inhibition of Nav1.1 (Nav1.1; [6]) | Rescued (6 Hz model) (mouse 6 Hz 44 mA model; 100 mg/kg) | also measured
C1CCc2nnnn2CC1 [PTZ, pentylentetrazol] |  |  |  |  |  |  |  |  |  |  |  |  |  |  | activity and MI in response to multiple light and acoustic stimuli (zebrafish larvae): induced hyperactivity
Cc1ccc(-c2nc(N3CCOCC3)sc2C(=O)NCC2CCCO2)cc1 (stereo not drawn) [TT0011235] | attenuated |  |  |  |  |  |  |  |  |  |  |  |  |  | effect on overall MI ([2]; at concentrations higher than 20 μM): inhibitory effect; concentration of most effective phenotypic reversal ([2]; tested at 2.5-80 μM): 20 µM; rescue of VU0240551-induced behaviors ([2]; tested at 2.5-80 μM): rescued; EGABA values ([3]; perfusion of 30 μM): shifted; GABAA-mediated currents (muscimol-activated and endogenous post-synaptic potentials) ([3]; perfusion of 30 μM): potentiated
COc1cc(C)c(C(C)C)cc1S(=O)(=O)NCCN1CCOCC1 [TT0023831, 5-isopropyl-2-methoxy-4-methyl-N-(2-morpholinoethyl)benzene-sulfonamide] | did not | concentration-dependent inhibition | concentration-dependent inhibition | outperform both tiagabine and valproic acid | 0/4 | 2/4 | 2/4 | neither TT0023831 nor TT0042607 appeared to have an effect | reduced the firing rates | delayed spike initiation | without changing | without affecting | concentration-dependent inhibition | 3/8 | overall motor activity of the larvae ([4]; 80 μM, reduced the rescue score): reduced the overall motor activity; EC50 ([4]; Danio rerio, read-out: in vivo EC50): 5 µM; peak activity ([4]; concentration of peak effect, doses 2.5-320 uM, suppression of KCC2-inhibited phenotype in zebrafish): 20 µM; concentration of best phenotypic reversal ([4]; tested at 2.5-80 μM, high rescue scores): 20 µM and 40 µM; action potential threshold ([3]; 30 μM): raising; rheobase ([3]; 30 μM): increased; Rescued (6 Hz model) (mouse 6 Hz 44 mA model; 50 mg/kg): 0/8; Rescued (6 Hz model) (mouse 6 Hz 44 mA model; 200 mg/kg): 7/8
CCCOc1nn(CCC)cc1C(=O)Nc1ccc(C(F)(F)F)cc1 [TT0042607, 3-propoxy-1-propyl-N-(4-(trifluoromethyl)phen-yl)-1H-pyrazole-4-carboxamide] | attenuated |  |  | outperform both tiagabine and valproic acid | 0/4 | 0/4 | 2/4 | neither TT0023831 nor TT0042607 appeared to have an effect | reduced the firing rates | delayed spike initiation | reduced | reduced |  | 1/4 | effect on the overall MI ([4]; sub-micromolar or higher concentrations (tested 0.08-2.5 μM)): no effect; rescue of VU0463271-induced behaviors ([4]; tested at 0.08-2.5 μM, already at sub-micromolar concentrations): rescued; upstroke and repolarization ([3]; 30 μM): slowed; Rescued (6 Hz model) (mouse 6 Hz 44 mA model; 10 mg/kg): 0/4; Rescued (6 Hz model) (mouse 6 Hz 44 mA model; 30 mg/kg): 0/4
NC1=N[C@H](O)[C@H]2[C@H]3O[C@]4(O)O[C@@H]([C@@H](O)[C@@]2(N1)[C@@H]4O)[C@]3(O)CO [TTX, tetrodotoxin] |  |  |  |  |  |  |  |  |  |  |  |  |  |  | inhibition of Nav1.6 (Nav1.6): concentration-dependent inhibition; inhibition of Nav1.2 (Nav1.2): concentration-dependent inhibition; inhibition of Nav1.1 (Nav1.1): concentration-dependent inhibition
CCCCNc1ccc(C(=O)OCCN(C)C)cc1 [tetracaine] |  | concentration-dependent inhibition | concentration-dependent inhibition |  |  |  |  |  |  |  |  |  | concentration-dependent inhibition |  | 
